# Data published in ChEMBL document CHEMBL1201862, “PubChem BioAssay data set” (2004).
# Calls of active or inactive are those of the source.
# Experiments:
# [1] = system: HeLa; assay: ATP-based viability loss in HeLa cells – cell-based, CellTiter-Glo luminescence, cherry-pick samples, cytotoxicity control for MITF activator project, dose response (AID 540259); type: functional; settings: Homo sapiens
# [2] = target: Cytochrome P450 2C19 (Homo sapiens, UniProt P33261); assay: Cytochrome panel assay with activity outcomes. Panel member name: p450-cyp2c19 Compounds with AC50 equal or less than 10 uM are considered active; type: functional
# Cytochrome P450 2C19, sequence (P33261 whole entry): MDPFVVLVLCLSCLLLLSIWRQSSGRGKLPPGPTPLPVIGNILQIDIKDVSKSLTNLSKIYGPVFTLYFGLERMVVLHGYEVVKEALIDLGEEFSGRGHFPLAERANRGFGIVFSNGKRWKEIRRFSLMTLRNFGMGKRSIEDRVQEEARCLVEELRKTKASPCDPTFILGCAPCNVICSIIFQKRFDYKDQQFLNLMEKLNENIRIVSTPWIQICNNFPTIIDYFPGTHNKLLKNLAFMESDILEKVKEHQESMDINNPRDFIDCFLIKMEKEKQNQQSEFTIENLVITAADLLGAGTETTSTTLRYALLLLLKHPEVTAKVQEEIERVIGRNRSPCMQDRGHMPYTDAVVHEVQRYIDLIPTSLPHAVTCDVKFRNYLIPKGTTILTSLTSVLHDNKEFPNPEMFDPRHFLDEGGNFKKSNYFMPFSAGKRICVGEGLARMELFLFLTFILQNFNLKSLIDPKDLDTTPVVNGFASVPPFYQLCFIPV
# [3] = target: T1, Cytochrome P450 3A4 (Homo sapiens, UniProt P08684);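 also: CYP3A4 tested as one member of a cytochrome P450 panel screen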
# T1 sequence (P08684 whole entry): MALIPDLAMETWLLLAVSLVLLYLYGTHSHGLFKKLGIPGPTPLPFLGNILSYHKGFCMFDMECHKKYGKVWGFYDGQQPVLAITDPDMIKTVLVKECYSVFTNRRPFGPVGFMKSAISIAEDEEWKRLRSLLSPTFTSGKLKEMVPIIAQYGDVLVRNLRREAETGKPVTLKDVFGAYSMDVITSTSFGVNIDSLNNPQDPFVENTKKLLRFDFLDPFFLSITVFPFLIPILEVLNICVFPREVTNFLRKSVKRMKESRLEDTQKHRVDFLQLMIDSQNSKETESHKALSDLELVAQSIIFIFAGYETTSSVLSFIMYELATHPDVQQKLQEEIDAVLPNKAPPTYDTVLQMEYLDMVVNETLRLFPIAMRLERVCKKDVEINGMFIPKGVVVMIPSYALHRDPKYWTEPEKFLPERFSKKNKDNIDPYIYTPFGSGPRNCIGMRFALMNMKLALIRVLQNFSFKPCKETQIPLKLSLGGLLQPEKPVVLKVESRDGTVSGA
# [4] = target: Cytochrome P450 2C9 (Homo sapiens, UniProt P11712)
# Cytochrome P450 2C9, sequence (P11712 whole entry): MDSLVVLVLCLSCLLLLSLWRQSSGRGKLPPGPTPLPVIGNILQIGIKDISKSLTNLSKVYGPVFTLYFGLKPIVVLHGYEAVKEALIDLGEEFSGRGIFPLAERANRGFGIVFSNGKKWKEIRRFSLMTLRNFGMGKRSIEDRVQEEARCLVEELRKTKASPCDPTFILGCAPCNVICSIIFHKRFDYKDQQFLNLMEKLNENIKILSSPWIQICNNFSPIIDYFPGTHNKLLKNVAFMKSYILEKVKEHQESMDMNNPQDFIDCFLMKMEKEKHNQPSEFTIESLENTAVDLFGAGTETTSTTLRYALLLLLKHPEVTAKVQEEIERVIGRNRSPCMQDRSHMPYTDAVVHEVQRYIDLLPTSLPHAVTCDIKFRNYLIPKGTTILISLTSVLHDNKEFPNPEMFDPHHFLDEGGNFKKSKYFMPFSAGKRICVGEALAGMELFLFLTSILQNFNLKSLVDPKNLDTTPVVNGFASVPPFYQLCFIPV
# [5] = luciferase reporter signal suppression in cells – H4 neuroglioma cells, luminescence, dose response (AID 1990); type: functional, cell-based
# [6] = Luminescence Cell-Based Dose Response HTS to Identify Inhibitors of 5'UTR Stem-Loop Driven Prion Protein mRNA Translation in H4 Neuroglioblastoma Cells. [Related pubchem assays: 1827 (Project Summary), 1813 (Primary HTS)]; type: functional
# [7] = alpha-synuclein stem-loop luciferase translation blockers – H4 neuroglioma cells, luminescence, confirmation (AID 1988); type: functional, cell-based
# [8] = system: Vero; assay: cells; type: functional, cell-based; settings: Chlorocebus sabaeus
# [9] = system: Vero; assay: cells; type: functional; settings: Chlorocebus sabaeus
# [10] = target: Paired box protein Pax-8 (Homo sapiens, UniProt Q06710); assay: PAX8 transcriptional activity inhibition in RMG-I – RMG-I cells, luciferase, cherry-pick, dose response (AID 687027); type: functional, cell-based;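 also: luciferase reporter driven by Pax8 target thyroperoxidase promoter measured by SteadyGlo luminescence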
# Paired box protein Pax-8, sequence (Q06710 whole entry): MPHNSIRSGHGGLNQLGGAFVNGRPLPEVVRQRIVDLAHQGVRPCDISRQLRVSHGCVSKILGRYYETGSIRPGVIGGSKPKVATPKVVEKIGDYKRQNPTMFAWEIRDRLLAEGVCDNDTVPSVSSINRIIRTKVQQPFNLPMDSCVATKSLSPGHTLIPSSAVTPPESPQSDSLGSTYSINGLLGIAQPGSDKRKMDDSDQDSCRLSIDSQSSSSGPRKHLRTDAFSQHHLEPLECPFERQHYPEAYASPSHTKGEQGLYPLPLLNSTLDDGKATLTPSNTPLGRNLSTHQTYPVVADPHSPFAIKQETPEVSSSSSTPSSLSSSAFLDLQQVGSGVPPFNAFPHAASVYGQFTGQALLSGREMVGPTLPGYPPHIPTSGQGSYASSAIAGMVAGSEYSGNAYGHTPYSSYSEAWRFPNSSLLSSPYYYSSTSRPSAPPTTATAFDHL
# [11] = target: T1, Cytochrome P450 3A4; remark: listed apart in the source
# [12] = system: Streptococcus sp. 'group A'; assay: Streptococcus pyogenes SK(-)GAS viability under kanamycin – luminescence, BacTiterGlo, confirmation, counter-screen for streptokinase expression inhibitor project, dose response (AID 1900); type: functional, organism-based
# [13] = system: Streptococcus; assay: GAS UMAA2166 growth inhibition – luminescence, BacTiterGlo, counter-screen for streptokinase expression inhibitor project, dose response (AID 1915); type: functional, organism-based;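 also: potency for reduction of bacterial viability or growth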
# [14] = target: T2, Caspase-3 (Homo sapiens, UniProt P42574); type: functional;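 also: Dose-response selectivity test against caspase-3 for candidate inhibitors of sentrin-specific proteases (SENPs)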
# T2 sequence (P42574 whole entry): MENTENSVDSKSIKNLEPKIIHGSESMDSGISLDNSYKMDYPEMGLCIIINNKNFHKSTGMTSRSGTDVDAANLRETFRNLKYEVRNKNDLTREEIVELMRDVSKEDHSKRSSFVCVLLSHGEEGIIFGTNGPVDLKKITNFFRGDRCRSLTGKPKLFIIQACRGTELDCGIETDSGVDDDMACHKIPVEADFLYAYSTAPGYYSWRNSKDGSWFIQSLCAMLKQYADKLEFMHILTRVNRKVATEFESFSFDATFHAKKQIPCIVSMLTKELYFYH
# [15] = target: T3, Sentrin-specific protease 7 (Homo sapiens, UniProt Q9BQF6); type: functional;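 also: Luminescence-based dose-response confirmation of ultra-high-throughput screening hits, measuring inhibition of SENP7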
# T3 sequence (Q9BQF6 whole entry): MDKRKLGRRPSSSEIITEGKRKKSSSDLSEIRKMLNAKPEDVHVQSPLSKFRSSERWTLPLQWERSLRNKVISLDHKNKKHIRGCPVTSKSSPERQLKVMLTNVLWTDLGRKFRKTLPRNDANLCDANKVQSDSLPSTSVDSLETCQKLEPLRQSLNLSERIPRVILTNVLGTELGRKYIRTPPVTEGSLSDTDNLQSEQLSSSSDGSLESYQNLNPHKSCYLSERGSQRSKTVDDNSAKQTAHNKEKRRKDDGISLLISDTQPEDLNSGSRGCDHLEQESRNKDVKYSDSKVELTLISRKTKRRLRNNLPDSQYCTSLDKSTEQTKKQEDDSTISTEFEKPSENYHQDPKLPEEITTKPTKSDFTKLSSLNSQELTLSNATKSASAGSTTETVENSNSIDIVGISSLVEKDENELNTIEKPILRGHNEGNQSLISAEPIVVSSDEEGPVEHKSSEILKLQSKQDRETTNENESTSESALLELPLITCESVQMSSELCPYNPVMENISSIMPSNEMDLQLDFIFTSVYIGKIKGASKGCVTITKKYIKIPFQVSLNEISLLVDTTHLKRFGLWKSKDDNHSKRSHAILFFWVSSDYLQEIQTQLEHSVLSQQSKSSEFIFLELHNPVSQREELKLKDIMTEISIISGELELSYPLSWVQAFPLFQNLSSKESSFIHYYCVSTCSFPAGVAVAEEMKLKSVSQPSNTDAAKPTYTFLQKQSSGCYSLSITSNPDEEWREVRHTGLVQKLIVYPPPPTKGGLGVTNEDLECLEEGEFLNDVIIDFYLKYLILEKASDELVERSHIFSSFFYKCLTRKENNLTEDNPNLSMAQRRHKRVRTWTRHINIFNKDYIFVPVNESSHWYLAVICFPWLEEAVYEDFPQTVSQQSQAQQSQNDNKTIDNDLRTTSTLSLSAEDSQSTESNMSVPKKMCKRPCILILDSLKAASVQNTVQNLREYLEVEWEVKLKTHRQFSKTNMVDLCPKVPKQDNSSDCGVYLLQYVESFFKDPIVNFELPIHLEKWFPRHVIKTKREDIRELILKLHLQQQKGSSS
# [16] = target: T4, Sentrin-specific protease 6 (Homo sapiens, UniProt Q9GZR1); type: functional;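 also: Luminescence-based dose-response confirmatory assay of SENP6 inhibition, following up an ultra-high-throughput screen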
# T4 sequence (Q9GZR1 whole entry): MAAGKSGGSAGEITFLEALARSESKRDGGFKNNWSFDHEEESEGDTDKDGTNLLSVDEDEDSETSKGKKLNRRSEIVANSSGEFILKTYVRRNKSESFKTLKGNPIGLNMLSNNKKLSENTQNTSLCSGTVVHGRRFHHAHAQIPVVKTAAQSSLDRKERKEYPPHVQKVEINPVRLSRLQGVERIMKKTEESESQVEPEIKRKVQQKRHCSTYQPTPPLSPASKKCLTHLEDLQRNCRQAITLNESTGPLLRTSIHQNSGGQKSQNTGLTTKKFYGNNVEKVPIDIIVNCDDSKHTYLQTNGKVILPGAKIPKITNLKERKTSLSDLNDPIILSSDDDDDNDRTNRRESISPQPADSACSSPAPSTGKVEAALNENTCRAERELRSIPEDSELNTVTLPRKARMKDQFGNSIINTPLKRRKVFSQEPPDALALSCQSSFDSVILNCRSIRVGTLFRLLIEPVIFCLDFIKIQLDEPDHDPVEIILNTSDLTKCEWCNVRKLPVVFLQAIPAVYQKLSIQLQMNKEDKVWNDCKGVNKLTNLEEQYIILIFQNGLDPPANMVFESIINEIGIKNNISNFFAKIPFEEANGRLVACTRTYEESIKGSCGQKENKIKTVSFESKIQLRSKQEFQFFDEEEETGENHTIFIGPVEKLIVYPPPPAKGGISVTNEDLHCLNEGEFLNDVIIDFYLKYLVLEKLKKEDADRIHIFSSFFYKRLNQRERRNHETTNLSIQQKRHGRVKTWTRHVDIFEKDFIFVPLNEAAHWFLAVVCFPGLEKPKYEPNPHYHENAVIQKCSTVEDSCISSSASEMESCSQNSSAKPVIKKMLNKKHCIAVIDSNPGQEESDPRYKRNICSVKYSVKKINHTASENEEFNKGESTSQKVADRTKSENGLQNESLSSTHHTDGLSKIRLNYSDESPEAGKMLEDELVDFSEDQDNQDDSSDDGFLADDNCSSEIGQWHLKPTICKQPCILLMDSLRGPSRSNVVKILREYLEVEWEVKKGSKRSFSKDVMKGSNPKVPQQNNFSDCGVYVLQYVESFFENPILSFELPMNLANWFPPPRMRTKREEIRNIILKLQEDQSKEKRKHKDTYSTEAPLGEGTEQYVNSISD
# [17] = target: T5, Sentrin-specific protease 8 (Homo sapiens, UniProt Q96LD8); type: functional;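 also: luminescence read-out of SENP8 inhibition, dose-response confirmation following an ultra-high-throughput screen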
# T5 sequence (Q96LD8 whole entry): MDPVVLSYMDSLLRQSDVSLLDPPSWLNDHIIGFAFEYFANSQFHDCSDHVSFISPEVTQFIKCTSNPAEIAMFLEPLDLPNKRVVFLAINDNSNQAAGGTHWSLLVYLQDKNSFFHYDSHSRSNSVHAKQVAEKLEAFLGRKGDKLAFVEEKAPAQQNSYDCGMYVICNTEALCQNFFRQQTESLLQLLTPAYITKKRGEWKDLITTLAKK
# [18] = target: T6, Heat shock factor protein 1 (Mus musculus, UniProt P38532); assay: enhancement of HSF1-driven luciferase signal – cell-based, NIH3T3, luminescence, dose retest, confirmation (AID 435004); type: functional;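 also: stress induced by proteasome inhibitor MG132 added 30 min after compound; luciferase reporter driven by HSF1 response element in NIH3T3 cells; actives raise luminescence as potentiators of the MG132 stress response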
# T6 sequence (P38532 whole entry): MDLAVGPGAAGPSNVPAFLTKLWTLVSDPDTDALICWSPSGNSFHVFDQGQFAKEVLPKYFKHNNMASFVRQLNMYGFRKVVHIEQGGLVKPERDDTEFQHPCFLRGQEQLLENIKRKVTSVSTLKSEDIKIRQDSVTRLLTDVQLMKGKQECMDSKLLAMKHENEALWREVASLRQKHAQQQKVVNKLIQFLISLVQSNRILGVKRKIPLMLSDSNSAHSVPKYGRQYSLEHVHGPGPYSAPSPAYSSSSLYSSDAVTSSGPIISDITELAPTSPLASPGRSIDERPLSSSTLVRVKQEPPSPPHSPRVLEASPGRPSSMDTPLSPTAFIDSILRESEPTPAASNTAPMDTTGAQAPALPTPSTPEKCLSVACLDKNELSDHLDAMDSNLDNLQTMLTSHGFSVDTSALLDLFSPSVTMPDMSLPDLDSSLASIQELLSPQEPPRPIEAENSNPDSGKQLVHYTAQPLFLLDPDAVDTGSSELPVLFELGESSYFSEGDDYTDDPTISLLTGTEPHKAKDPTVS
# [19] = target: T7, Polyadenylate-binding protein 1 (Homo sapiens, UniProt P11940); assay: MLLE binding blockers, Cy5 peptide tracer – biochemical, fluorescence polarization, Cy5-PAM2 peptide, secondary, miRNA deadenylation inhibitor project, dose response (AID 602260); type: functional; settings: read-out: IC50_Mean
# T7 sequence (P11940 whole entry, the tested form may be a part): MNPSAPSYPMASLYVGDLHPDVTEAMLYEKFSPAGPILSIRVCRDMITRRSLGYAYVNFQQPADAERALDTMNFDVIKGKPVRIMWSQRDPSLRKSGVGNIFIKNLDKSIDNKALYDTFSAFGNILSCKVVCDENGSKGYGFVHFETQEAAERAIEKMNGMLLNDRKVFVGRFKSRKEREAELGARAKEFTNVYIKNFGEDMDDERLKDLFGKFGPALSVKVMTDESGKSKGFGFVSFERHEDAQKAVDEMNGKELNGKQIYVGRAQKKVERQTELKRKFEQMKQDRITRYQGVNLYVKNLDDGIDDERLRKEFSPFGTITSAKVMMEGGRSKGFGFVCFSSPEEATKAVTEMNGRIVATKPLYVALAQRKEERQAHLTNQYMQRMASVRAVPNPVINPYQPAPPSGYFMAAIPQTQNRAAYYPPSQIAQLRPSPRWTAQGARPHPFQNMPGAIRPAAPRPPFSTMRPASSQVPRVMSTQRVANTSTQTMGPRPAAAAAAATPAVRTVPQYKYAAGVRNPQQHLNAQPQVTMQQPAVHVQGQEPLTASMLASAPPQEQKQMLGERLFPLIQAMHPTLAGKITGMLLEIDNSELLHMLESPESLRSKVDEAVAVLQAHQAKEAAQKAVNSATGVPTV
# [20] = target: T7, Polyadenylate-binding protein 1; assay: MLLE domain peptide-binding blockers, IC50 – biochemical, fluorescence polarization, FITC-PAM2 peptide, dose response (AID 602259); type: functional; settings: read-out: IC50_Mean
# [21] = target: T8, RNA-binding protein pos-1 (Caenorhabditis elegans, UniProt G5EF15); assay: disruptors of C. elegans POS-1 RNA interaction – biochemical, fluorescence polarization, dose response (AID 1964);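 also: purified POS-1 fused to maltose binding protein made in E. coli; potency of compounds blocking POS-1 binding to fluorescent RNA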
# T8 sequence (G5EF15 whole entry): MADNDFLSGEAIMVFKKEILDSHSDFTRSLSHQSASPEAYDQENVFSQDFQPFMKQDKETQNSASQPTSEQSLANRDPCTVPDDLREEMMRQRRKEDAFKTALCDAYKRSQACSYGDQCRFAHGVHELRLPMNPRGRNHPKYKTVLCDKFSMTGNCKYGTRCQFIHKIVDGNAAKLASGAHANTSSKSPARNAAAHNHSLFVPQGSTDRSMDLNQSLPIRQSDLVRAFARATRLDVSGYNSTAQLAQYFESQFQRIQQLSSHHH
# [22] = target: T9, Zinc finger protein mex-5 (Caenorhabditis elegans, UniProt Q9XUB2); assay: potency of MEX-5 RNA-binding blockers – biochemical, C. elegans, fluorescence polarization, dose response (AID 1960)
# T9 sequence (Q9XUB2 whole entry): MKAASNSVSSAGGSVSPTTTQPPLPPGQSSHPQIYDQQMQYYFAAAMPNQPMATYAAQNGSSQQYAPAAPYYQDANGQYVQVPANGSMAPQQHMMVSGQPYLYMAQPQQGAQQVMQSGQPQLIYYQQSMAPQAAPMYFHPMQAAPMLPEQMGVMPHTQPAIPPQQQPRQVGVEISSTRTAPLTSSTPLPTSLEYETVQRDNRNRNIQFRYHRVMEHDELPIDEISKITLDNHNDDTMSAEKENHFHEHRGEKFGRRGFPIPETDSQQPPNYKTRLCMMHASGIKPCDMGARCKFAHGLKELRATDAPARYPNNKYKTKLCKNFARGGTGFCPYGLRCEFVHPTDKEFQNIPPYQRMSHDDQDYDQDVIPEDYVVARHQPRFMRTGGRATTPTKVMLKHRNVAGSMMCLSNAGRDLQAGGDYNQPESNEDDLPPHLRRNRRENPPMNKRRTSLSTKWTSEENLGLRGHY
# [23] = target: Cytochrome P450 2D6 (Homo sapiens, UniProt P10635);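 also: CYP2D6 member of a cytochrome P450 panel assay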
# Cytochrome P450 2D6, sequence (P10635 whole entry): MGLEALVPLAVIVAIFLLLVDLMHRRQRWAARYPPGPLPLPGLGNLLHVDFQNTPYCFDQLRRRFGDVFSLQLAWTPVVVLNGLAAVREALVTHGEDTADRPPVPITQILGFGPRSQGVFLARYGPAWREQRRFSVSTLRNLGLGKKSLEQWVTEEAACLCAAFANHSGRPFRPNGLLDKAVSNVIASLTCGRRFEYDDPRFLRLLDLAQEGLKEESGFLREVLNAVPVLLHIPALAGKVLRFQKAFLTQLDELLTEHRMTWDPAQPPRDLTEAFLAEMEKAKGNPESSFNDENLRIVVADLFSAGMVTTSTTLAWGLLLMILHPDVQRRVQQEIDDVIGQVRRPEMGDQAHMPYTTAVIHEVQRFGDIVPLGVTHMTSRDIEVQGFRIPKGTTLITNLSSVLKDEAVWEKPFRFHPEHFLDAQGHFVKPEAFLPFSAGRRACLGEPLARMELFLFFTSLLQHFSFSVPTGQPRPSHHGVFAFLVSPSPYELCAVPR
smiles,measurement,setting,value
CCCSc1ccc(C(=O)Nc2ccc(F)cc2F)cn1,AC50,[1],88.6 µM (active)
Cc1cc2ncc(-c3ccc(Cl)cc3)c(N)n2n1,AC50,[1],68.3 µM (active)
CC(C)(C)c1ccc(OCC(=O)NNC(=O)CCc2ccccc2)cc1,AC50,[2],14.1 µM (inconclusive)
same,AC50,[3],inconclusive
same,AC50,[4],inconclusive
CC1=CC(C)(C)N2C(=O)C3(NCCc4c3[nH]c3ccccc43)c3cc(C)cc1c32 (stereo unspecified),EC50,[5],12.2 µM (active)
same,EC50,[6],> 120 µM (not active)
same,EC50,[7],> 120 µM (not active)
same,IC50,[8],22.7 µM (active)
same,CC50,[9],> 25 µM (active)
same,AC50,[10],7.27 µM (active)
CCC1Oc2ccccc2N(CC(=O)NCCCN2CCCCC2C)C1=O (stereo unspecified),AC50,[2],2.24 µM (inconclusive)
same,AC50,[11],20 µM (inconclusive)
same,AC50,[4],inconclusive
COc1ccc(CC(=O)NC(=S)NNC(=O)COc2c(C)cccc2C)cc1,EC50,[12],0.124 µM (active)
same,EC50,[13],6.88 µM (active)
same,IC50,[8],11.4 µM (active)
same,CC50,[9],> 25 µM (active)
Cc1cc(O)c(C(=O)/C=C/c2ccc(Cl)cc2)c(=O)o1,IC50,[8],> 25 µM (active)
same,CC50,[9],17.6 µM (active)
Clc1ccc(COn2nnc3ccccc32)c(Cl)c1,IC50,[14],24.1 µM (active)
same,IC50,[15],8.88 µM (active)
same,IC50,[16],31.2 µM (active)
same,IC50,[17],35.3 µM (active)
same,AC50,[1],77.9 µM (active)
CCN(CC)S(=O)(=O)c1ccc(C)c(NC(S)=Nc2cccc(S(=O)(=O)N3CCCCCC3)c2)c1,EC50,[18],> 260 µM (inactive)
same,IC50,[8],> 25 µM (active)
same,CC50,[9],18.7 µM (active)
same,IC50,[19],> 66 µM (inactive)
same,IC50,[20],> 66 µM (inactive)
c1ccc2oc(CCc3nc4ccccc4o3)nc2c1,EC50,[21],> 300 µM (not active)
same,EC50,[22],> 300 µM (not active)
same,AC50,[1],56.3 µM (active)
CCCC(=O)Nc1ccc(C(=O)Nc2cc(C(F)(F)F)ccc2Cl)cc1,AC50,[23],8.91 µM (inconclusive)
same,AC50,[11],15.8 µM (inconclusive)
same,AC50,[4],inconclusive
